{
  "source": "patent US12453723B2",
  "about": "“Use of chidamide in preparing drug for treating renal fibrosis” (THE SECOND AFFILIATED HOSPITAL OF SOOCHOW UNIVERSITY, priority 2023, dated 2025)",
  "key": {"[1]": {"test_system": "PI3K/Akt signaling pathway", "assay": "PI3K/Akt signaling pathway in UUO mouse model (immunoblotting)", "type": "in vivo", "excerpt": "(§1) The PI3K-Akt signaling pathway is an intracellular signal transduction pathway which responds to extracellular signals, promotes metabolism, proliferation, cell survival, growth and angiogenesis, and participates in pathophysiological processes of multiple diseases. […] The above experimental results all verify that chidamide can inhibit the PI3K/Akt signaling pathway.\n(§2) In FIG. 7, (A) the effects of chidamide onprotein expression of p-PI3K, PI3K, p-Akt and Akt in TGF-β stimulated renal tubular epithelial cell HK-2 were detected by the immunoblotting experiment; (B-C) the statistical charts showingthe effect of chidamide onp-PI3K/PI3K and p-Akt/Akt ratios in TGF-β stimulated renal tubular epithelial cell HK-2, n=3, Mean±SDs, Student's t-test, *: P<0.05; (D) the effectof chidamide on protein expression of p-PI3K, PI3K, p-Akt and Akt in UUO mouse model was detected by the immunoblotting experiment (n=4); (E) the effect of chidamide on proein expression of autophagy markers of TGF-β stimulated renal tubular epithelial cell HK-2 was detected by the immunoblotting experiment; (F) the effect of chidamide on protein expression of autophagy markers as well as p-mTOR and mTOR in UUO mouse model was detected by the immunoblotting experiment (n=4)."}, "[2]": {"test_system": "PI3K/Akt signaling pathway", "assay": "PI3K/Akt signaling pathway in TGF-β stimulated HK-2 cells (immunoblotting)", "type": "cell-based", "excerpt": "as §1, §2"}, "[3]": {"test_system": "TGF-β stimulated renal tubular epithelial cells HK-2", "assay": "PI3K inhibitor LY 294002 and chidamide on fibrosis markers Collagen I and α-SMA in TGF-β stimulated HK-2 (immunoblotting)", "type": "cell-based", "settings": "FIG. 8B", "excerpt": "Subsequently, this example further investigated the change of chidamide on fibrosis markers after LY 294002 treatment was used in TGF-β stimulated renal tubular epithelial cells HK-2. […] The above experimental results initially verify that chidamide is very likely to inhibit the progression of renal fibrosis through the PI3K/Akt signaling pathway.\nIn FIG. 8, (A) the effect of different concentrations of LY 294002 (LY) on protein expression of fibrosis markers Collagen I and α-SMA in TGF-β stimulated renal tubular epithelial cells HK-2 was detected by the immunoblotting experiment; (B) the effect of LY 294002 (LY) on fibrosis marker Collagen I and α-SMA protein expression by chidamide was detected in TGF-β stimulated renal tubular epithelial cells HK-2 by the immunoblotting experiment."}, "[4]": {"test_system": "TGF-β stimulated renal tubular epithelial cells HK-2", "assay": "Fibrosis markers in TGF-β stimulated HK-2 cells (immunoblotting, qPCR)", "type": "cell-based", "settings": "different concentrations of chidamide", "procedure": "Example 1 verified that HDAC1/2/3/10 can participate in renal fibrosis, and example 2 further explored the effect of chidamide on renal fibrosis in TGF-β stimulated renal tubular epithelial cells. In example 2, cells were treated by using different concentrations of chidamide and then stimulated by adding TGF-β, and the protein expression and mRNA levels of fibrosis markers were detected respectively by using immunoblotting and qPCR experiments.\nIn FIG. 2, (A) the effect of different concentrations of chidamide on protein expression of fibrosis markers α-SMA and Vimentin (Vim) in TGF-β stimulated HK-2 cells was detected by the immunoblotting experiment; (B-C) the statistical results of α-SMA and Vimentin in FIG. A in 3 biological duplications, Mean±SDs, Student's t-test, *: P<0.05; **: P<0.01; (D-E) the effect of different concentrations of chidamide on […] experiment in TGF-β stimulated HK-2 cells, and the statistical resultsare 3 technical duplications, Mean±SD, Student's t-test, *: P<0.05, **: P<0.01, ***: P<0.001, ****: P<0.0001."}, "UUO mice": {"test_system": "UUO mice", "assay": "Renal fibrosis mouse model (UUO): renal morphology, renal function, collagen deposition, fibrosis markers", "type": "in vivo", "excerpt": "In this example, a renal fibrosis mouse model (UUO: Unilateral Uretera Obstruction, renal interstitial fibrosis model) was constructed through UUO surgery at the same time. On the 7th day after surgery, the protein expression of HDAC1/2/3/10 in test group (UUO) and control group (Sham) was detected respectively through immunoblotting and immunohistochemical tests.\nIn this example, mice were divided into 7 groups at random with 7 mice in each group, which were Sham group (sham), Sham+chidamide group (Sham-Chi 10 mg/kg/d), model group (UUO), UUO+Enacept positive control group (UUO-En 10 mg/kg/d), UUO+chidamide low-dose administration group (UUO-Chi 1 mg/kg/d), UUO+chidamide medium-dose administration group (UUO-Chi 5 mg/kg/d) and UUO+chidamide high-dose administration group (UUO-Chi 10 mg/kg/d), respectively. All drugs were administrated by gavage 3 days before modeling, once a day, until 7 days after surgery. Mice were weighed everyday after surgery, and then growth curves were plotted. After administration was ended, the mice were anesthetized, the eye sockets were removed and bloods were collected for the detection of serum creatinine (Scr) and urea nitrogen (BUN). At the same time, left and right kidneys were taken and then weighed after hydronephrosis was removed, so as to obtain the renal weight indexes of the obstructed kidneys in mice (kidney weight/mouse weight at the obstructed side). The photos were taken.\nIn FIG. 3, (A) the weight growth curve of mice verified the effect of UUO modeling and intragastric administration of chidamide on mouse weight, n=7, Mean±SDs, Student's t-test, ns: not significant; (B) the renal weight index change of mice (the statistical chart above, n=4, Mean±SDs, Student's t-test, *: P<0.05, **: P<0.01, ****: P<0.0001, ns: not significant) and renal tissue in vitro photos (below) verified the effect of chidamide on renal morphological changes of UUO mice; (C-D) mouse creatinine (C) and urea nitrogen (D) changes verified the effect of chidamide on renal functions of UUO mice, n=5-6, Mean±SDs, Student's t-test, *: P<0.05, **: P<0.01, ***: P<0.001, ns: not significant.\nIn the above constructed UUO mouse model of this example, the effect of chidamide on renal interstitial collagen fiber deposition was detected further by Masson staining.\nIn FIG. 4, (A-B) the deposition of renal interstitial collagen fibers was detected after UUO modeling and chidamide was administrated, (A) a typical picture for Masson staining; (B) the statistical results of Masson staining area proportion, n=6, Mean±SDs, Student's t-test, *: P<0.05, **: P<0.01, ****: P<0.0001, ns: not significant.\nIn this example, the improvement effect of chidamide on UUO renal fibrosis was further detected. In the above constructed UUO mouse model of this example, the effect of chidamide on protein expression of renal fibrosis markers was detected respectively by immunohistochemistry and immunoblotting experiments, and the change in fibrosis marker mRNA was detected by the qPCR experiment. […]"}},
  "data": [
    {"smiles": "Nc1cc(F)ccc1NC(=O)c1ccc(CNC(=O)/C=C/c2cccnc2)cc1", "note": "[chidamide, N-(2-amino-4-fluorophenyl)-4-[N-[(E)-3-(3-pyridine)acryloyl]aminomethyl]benzamide]", "values": [
      {"measurement": "p-Akt/Akt ratio", "setting": "[1]; FIG. 7D", "value": "significantly reduced"},
      {"measurement": "p-PI3K/PI3K ratio", "setting": "[1]; FIG. 7D", "value": "significantly reduced"},
      {"measurement": "autophagy flow (autophagy markers)", "setting": "[1]; FIG. 7F", "value": "restore an autophagy flow"},
      {"measurement": "p-mTOR/mTOR ratio", "setting": "[1]; FIG. 7F", "value": "reduce"},
      {"measurement": "autophagy flow (autophagy markers)", "setting": "[2]; FIG. 7E", "value": "restore an autophagy flow"},
      {"measurement": "p-Akt/Akt ratio", "setting": "[2]; FIGS. 7A-C", "value": "significantly reduced"},
      {"measurement": "p-PI3K/PI3K ratio", "setting": "[2]; FIGS. 7A-C", "value": "significantly reduced"},
      {"measurement": "expression of fibrosis markers Collagen I and α-SMA", "setting": "[3]; TGF-β stimulated HK-2, chidamide with PI3K inhibitor LY 294002 used simultaneously", "value": "cannot affect the expression of fibrosis markers any more"},
      {"measurement": "protein expression of fibrosis markers Collagen I and α-SMA", "setting": "[3]; TGF-β stimulated HK-2, used alone", "value": "can inhibit"},
      {"measurement": "protein expression of fibrosis markers (α-SMA, Vimentin)", "setting": "[4]; immunoblotting, FIG. 2A-C", "value": "significantly decreased"},
      {"measurement": "mRNA level of fibrosis markers (α-SMA, Vimentin)", "setting": "[4]; qPCR, FIG. 2D-E", "value": "significantly decreased"},
      {"measurement": "serum creatinine (Scr)", "setting": "UUO mice; UUO mice after chidamide administration, FIG. 3C", "value": "obviously fall back"},
      {"measurement": "urea nitrogen (BUN)", "setting": "UUO mice; UUO mice after chidamide administration, FIG. 3D", "value": "obviously fall back"},
      {"measurement": "renal interstitial collagen fiber deposition", "setting": "UUO mice; UUO mice, Masson staining, FIG. 4", "value": "significantly improved"},
      {"measurement": "protein expression of renal fibrosis markers", "setting": "UUO mice; UUO mouse renal tissues, immunohistochemistry and immunoblotting, FIGS. 5A-E", "value": "significantly fall back"},
      {"measurement": "mRNA of renal fibrosis markers", "setting": "UUO mice; UUO mouse renal tissues, qPCR, FIGS. 5F-I", "value": "significantly fall back"},
      {"measurement": "ureteral dilation degree and renal tissue squeezing degree", "setting": "UUO mice; UUO+chidamide group compared with UUO group, FIG. 3B", "value": "less than those in corresponding UUO group"},
      {"measurement": "obstruction renal weight index (kidney weight/mouse weight at the obstructed side)", "setting": "UUO mice; UUO+chidamide group compared with UUO group, gavage, FIG. 3B", "value": "significantly decreased"},
      {"measurement": "weight growth curve of mice", "setting": "UUO mice; intragastric administration at various doses (1, 5, 10 mg/kg/d), once a day, 3 days before modeling until 7 days after surgery, FIG. 3A", "value": "did not affect the growth of mice"}
    ]}
  ]
}
